From patent US7396837B2, “Antitumoral analogs of lamellarins” (Pharma Mar, S.A.U., priority 2002, dated 2008)

Assays:
Assay type in all cases: cell-based
IGROV = test: SRB colorimetric cell growth inhibition assay, IGROV; conditions: Homo sapiens, IGROV; for GI50: GI=growth inhibition, read-out: GI50 IGROV; for CC50: cell killing (cytotoxic effect), read-out: LC50 IGROV; for IC (TGI): total growth inhibition (cytostatic effect), read-out: TGI IGROV
How it was run: (§1)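 Sulforhodamine B colorimetric readout measured cell growth and viability after continuous compound exposure of human cancer cell lines in 96-well plates. Triplicate wells gave mean ± SD, from which growth inhibition (GI), cytostatic total growth inhibition (TGI) and cytotoxic cell killing (LC) were calculated.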

DU-145 = test: SRB colorimetric cell growth inhibition assay, DU-145; conditions: Homo sapiens, DU-145, DU-145; for GI50: GI=growth inhibition, read-out: GI50 DU-145; for CC50: cell killing (cytotoxic effect), read-out: LC50 DU-145; for IC (TGI): total growth inhibition (cytostatic effect), read-out: TGI DU-145
How it was run: as §1

LNCaP = test: SRB colorimetric cell growth inhibition assay, LNCaP; conditions: Homo sapiens, LNCaP, LN-caP; for GI50: GI=growth inhibition, read-out: GI50 LN-caP; for CC50: cell killing (cytotoxic effect), read-out: LC50 LN-caP; for IC (TGI): total growth inhibition (cytostatic effect), read-out: TGI LN-caP
How it was run: as §1

SK-MEL-28 = test: SRB colorimetric cell growth inhibition assay, SK-MEL-28; conditions: Homo sapiens, SK-MEL-28, MEL-28; for GI50: GI=growth inhibition, read-out: GI50 MEL-28; for CC50: cell killing (cytotoxic effect), read-out: LC50 MEL-28; for IC (TGI): total growth inhibition (cytostatic effect), read-out: TGI MEL-28
How it was run: as §1

A-549 = test: SRB colorimetric cell growth inhibition assay, A-549; conditions: Homo sapiens, A549, A-549; for GI50: GI=growth inhibition, read-out: GI50 A-549; for CC50: cell killing (cytotoxic effect), read-out: LC50 A-549; for IC (TGI): total growth inhibition (cytostatic effect), read-out: TGI A-549
How it was run: as §1

SK-BR-3 = test: SRB colorimetric cell growth inhibition assay, SK-BR-3; conditions: Homo sapiens, SK-BR-3, SK-BR-3; for GI50: GI=growth inhibition, read-out: GI50 SK-BR-3; for CC50: cell killing (cytotoxic effect), read-out: LC50 SK-BR-3; for IC (TGI): total growth inhibition (cytostatic effect), read-out: TGI SK-BR-3
How it was run: as §1

LoVo-Dox = test: SRB colorimetric cell growth inhibition assay, LoVo-Dox (MDR); conditions: Homo sapiens, LOVO-DOX; for GI50: GI=growth inhibition, read-out: GI50 LOVO-DOX; for CC50: cell killing (cytotoxic effect), read-out: LC50 LOVO-DOX; for IC (TGI): total growth inhibition (cytostatic effect), read-out: TGI LOVO-DOX
How it was run: as §1

PANC-1 = test: SRB colorimetric cell growth inhibition assay, PANC-1; conditions: Homo sapiens, PANC-1, PANC-1; for GI50: GI=growth inhibition, read-out: GI50 PANC-1; for CC50: cell killing (cytotoxic effect), read-out: LC50 PANC-1; for IC (TGI): total growth inhibition (cytostatic effect), read-out: TGI PANC-1
How it was run: as §1

K-562 = test: SRB colorimetric cell growth inhibition assay, K-562; conditions: Homo sapiens, K562, K-562; for GI50: GI=growth inhibition, read-out: GI50 K-562; for CC50: cell killing (cytotoxic effect), read-out: LC50 K-562; for IC (TGI): total growth inhibition (cytostatic effect), read-out: TGI K-562
How it was run: as §1

HeLa = test: SRB colorimetric cell growth inhibition assay, HeLa; conditions: Homo sapiens, HeLa; for GI50: GI=growth inhibition, read-out: GI50 HELA; for CC50: cell killing (cytotoxic effect), read-out: LC50 HELA; for IC (TGI): total growth inhibition (cytostatic effect), read-out: TGI HELA
How it was run: as §1

LoVo = test: SRB colorimetric cell growth inhibition assay, LoVo; conditions: Homo sapiens, LoVo; for GI50: GI=growth inhibition, read-out: GI50 LOVO; for CC50: cell killing (cytotoxic effect), read-out: LC50 LOVO; for IC (TGI): total growth inhibition (cytostatic effect), read-out: TGI LOVO
How it was run: as §1

HeLa-APL = test: SRB colorimetric cell growth inhibition assay, HeLa-APL (aplidine resistant); conditions: Homo sapiens, HELA-APL; for GI50: GI=growth inhibition, read-out: GI50 HELA-APL; for CC50: cell killing (cytotoxic effect), read-out: LC50 HELA-APL; for IC (TGI): total growth inhibition (cytostatic effect), read-out: TGI HELA-APL
How it was run: as §1

IGROV-ET = test: SRB colorimetric cell growth inhibition assay, IGROV-ET (ET-743 resistant); conditions: Homo sapiens, IGROV-ET; for GI50: GI=growth inhibition, read-out: GI50 IGROV-ET; for CC50: cell killing (cytotoxic effect), read-out: LC50 IGROV-ET; for IC (TGI): total growth inhibition (cytostatic effect), read-out: TGI IGROV-ET
How it was run: as §1

HT-29 = test: SRB colorimetric cell growth inhibition assay, HT-29; conditions: Homo sapiens, HT-29, HT-29; for GI50: GI=growth inhibition, read-out: GI50 HT-29; for CC50: cell killing (cytotoxic effect), read-out: LC50 HT-29; for IC (TGI): total growth inhibition (cytostatic effect), read-out: TGI HT-29
How it was run: as §1

For `COc1cc(-c2c3c4cc(OC)c(OC(=O)[C@@H](N)C(C)C)cc4oc(=O)c3n3ccc4cc(OC(=O)[C@@H](N)C(C)C)c(OC)cc4c23)ccc1OC(=O)[C@@H](N)C(C)C` [Compound 195], the GI50 (IGROV) was 25 nM, the CC50 (IGROV) was 855 nM and the IC (TGI) (IGROV) was 145 nM. For the same compound, the GI50 (DU-145) was 13.7 nM, the CC50 (DU-145) was 58.5 nM and the IC (TGI) (DU-145) was 28.4 nM. For the same compound, the GI50 (LNCaP) was 22.1 nM, the CC50 (LNCaP) was 365 nM and the IC (TGI) (LNCaP) was 86.4 nM. It also gave a GI50 (SK-MEL-28) of 44.1 nM, a CC50 (SK-MEL-28) of 1940 nM and an IC (TGI) (SK-MEL-28) of 159 nM. For the same compound, the GI50 (A-549) was 113 nM, the CC50 (A-549) was 11000 nM and the IC (TGI) (A-549) was 1150 nM. It also gave a GI50 (SK-BR-3) of 45.5 nM, a CC50 (SK-BR-3) of 840 nM and an IC (TGI) (SK-BR-3) of 89.8 nM. The GI50 (LoVo-Dox) was 106 nM, the CC50 (LoVo-Dox) was 2500 nM and the IC (TGI) (LoVo-Dox) was 500 nM. For the same compound, the GI50 (PANC-1) was 56.9 nM, the CC50 (PANC-1) was 3110 nM and the IC (TGI) (PANC-1) was 363 nM. For the same compound, the GI50 (K-562) was 11.7 nM, the CC50 (K-562) was 170 nM and the IC (TGI) (K-562) was 40.9 nM. The GI50 (HeLa) was 51.3 nM, the CC50 (HeLa) was 633 nM and the IC (TGI) (HeLa) was 204 nM. For the same compound, the GI50 (LoVo) was 150 nM, the CC50 (LoVo) was 783 nM and the IC (TGI) (LoVo) was 342 nM. The GI50 (HeLa-APL) was 87.6 nM, the CC50 (HeLa-APL) was 536 nM and the IC (TGI) (HeLa-APL) was 234 nM. It also gave a GI50 (IGROV-ET) of 41.7 nM, a CC50 (IGROV-ET) of 2740 nM and an IC (TGI) (IGROV-ET) of 215 nM. It also gave a GI50 (HT-29) of 2150 nM, a CC50 (HT-29) of 8620 nM and an IC (TGI) (HT-29) of 4310 nM.

For `COc1cc2c(cc1O)CCn1c-2cc2c3cc(OC)c(O)cc3oc(=O)c21` [Compound 196], the GI50 (IGROV) was 691 nM, the CC50 (IGROV) was 16500 nM and the IC (TGI) (IGROV) was 2490 nM. The GI50 (DU-145) was 414 nM, the CC50 (DU-145) was 11200 nM and the IC (TGI) (DU-145) was 1650 nM. The GI50 (LNCaP) was 398 nM, the CC50 (LNCaP) was 9780 nM and the IC (TGI) (LNCaP) was 1450 nM. The GI50 (SK-MEL-28) was 675 nM, the CC50 (SK-MEL-28) was 26400 nM and the IC (TGI) (SK-MEL-28) was 8990 nM. The GI50 (A-549) was 1680 nM, the CC50 (A-549) was 26400 nM and the IC (TGI) (A-549) was 26400 nM. It also gave a GI50 (SK-BR-3) of 654 nM, a CC50 (SK-BR-3) of 26400 nM and an IC (TGI) (SK-BR-3) of 1650 nM. It also gave a GI50 (LoVo-Dox) of 517 nM, a CC50 (LoVo-Dox) of 26400 nM and an IC (TGI) (LoVo-Dox) of 26400 nM. For the same compound, the GI50 (PANC-1) was 957 nM, the CC50 (PANC-1) was 26400 nM and the IC (TGI) (PANC-1) was 7250 nM. For the same compound, the GI50 (K-562) was 234 nM, the CC50 (K-562) was 1500 nM and the IC (TGI) (K-562) was 614 nM. The GI50 (HeLa) was 351 nM, the CC50 (HeLa) was 26400 nM and the IC (TGI) (HeLa) was 1930 nM. It also gave a GI50 (LoVo) of 799 nM, a CC50 (LoVo) of 26400 nM and an IC (TGI) (LoVo) of 3530 nM. It also gave a GI50 (HeLa-APL) of 117 nM, a CC50 (HeLa-APL) of 1920 nM and an IC (TGI) (HeLa-APL) of 511 nM. For the same compound, the GI50 (IGROV-ET) was 849 nM, the CC50 (IGROV-ET) was 26400 nM and the IC (TGI) (IGROV-ET) was 3850 nM. For the same compound, the GI50 (HT-29) was 8460 nM, the CC50 (HT-29) was 26400 nM and the IC (TGI) (HT-29) was 26400 nM.
